Experiments:
MOG35-55 induced EAE [1] = test: Chronic MOG35-55 EAE, clinical evaluation; format: in vivo, C57BL/6 mice; settings: for overall clinical effect on MOG35-55 EAE: co-injection at disease induction at 1:1 ratio
MOG35-55 induced EAE [2] = test: MOG35-55 EAE, spinal cord histopathology; format: in vivo, C57BL/6 mice
Method: On day 17 (acute phase of EAE) and day 46 post-EAE-induction (chronic phase of EAE) animals were subjected to transcardial perfusion with 4% paraformaldehyde in PBS. Brains and spinal cords were removed, post-fixed in the same fixative for approximately 20 hours, routinely processed for paraffin embedding and sectioned at […]. Sections from animals of acute and chronic phases of the disease, were then stained using the following methods: a) a modified Bielschowsky silver impregnation staining method combined with haematoxylin, for the simultaneous evaluation of axonal injury, axonal loss and inflammatory processes in EAE as previously described in detail [Lourbopoulos et, al., 2007]; b) Luxol fast blue staining counterstained with Nuclear fast Red for the detection of demyelinating areas within the CNS of animals, using routine histopathological protocols. Pathological evaluation was performed under a light microscope (Olympus Axioplan-2) by two blinded investigators and photos were taken using a CCD camera (Nikon). Five randomly selected longitudinal sections per tissue (brains and spinal cords) were evaluated as follows: for each animal, each section was evaluated under 20× or 40× optical fields (depending on the object of study) so as to cover the entire area of the section. […] Depending on the object of interest the following scales were used to perform the evaluation: (a) For axonal injury (AI), the following scale was used: 0=no AI, 1+=scattered dystrophic injured axons without any spheroid or ovoid, 2+=mild AI with the presence of at least one spheroid or ovoid, 3+=moderate AI, 4+=severe AI; generally injured axons were defined and identified as spheroids and ovoids (which represent axonotmesis), and dilated (dystrophic) axons which represent injured axons not yet being cut. (b) For axonal loss (AL): 0=normal axonal density, 1+=<25% AL, 2+=mild AL (26-50%), 3+=moderate to severe (51-75%) AL, 4+=severe AL (>75%); various degrees of decreased density of axons was attributed to axonal loss and evaluated accordingly. (c) For infiltrations: number of infiltrating cells per optical field and number of infiltrating cells per infiltration. (d) Demyelination was evaluated under 40× optical fields; using a prefrontal grid, we measured the area of demyelination and the total area of white matter in each optical field and then subtracted the % of demyelination present in each optical field.

CC[C@H](C)[C@@H]1NC(=O)[C@H](CC(N)=O)NC(=O)[C@H](CCCCN)NC(=O)[C@H](Cc2ccccc2)NC(=O)[C@H](Cc2ccccc2)NC(=O)[C@H](Cc2c[nH]cn2)NC(=O)[C@H](C(C)C)NC(=O)[C@H](C(C)C)NC(=O)[C@@H]2CCCN2C(=O)[C@H](CC(N)=O)NC(=O)[C@H](CCC(=O)O)NC(=O)[C@@H]2CCCN2C(=O)[C@H]([C@@H](C)O)NC(=O)[C@H](CCCNC(=N)N)NC(=O)[C@@H]2CCCN2C(=O)[C@H]([C@@H](C)O)NC(=O)[C@H](C(C)C)NC1=O [cyclo(83-99)MBP83-99, cyclo(83-99)E N P V V H F F K N I V T P R T P]
mean day of disease onset (MOG35-55 induced EAE [1]; acute phase experiment): 12.00±0.81 | mean clinical score vs control (MOG35-55 induced EAE [1]; acute phase, days 15, 16 and 17): statistical significant different | mean Areas Under the Curve (mAUC) (MOG35-55 induced EAE [1]; acute phase, sacrifice day 17, 300 μg co-injected 1:1 with MOG35-55): 13.32±2.55 | mean day of disease onset (MOG35-55 induced EAE [1]; chronic phase experiment): 17.00±11.74 | Mean Maximal Clinical Scores (MMS) (MOG35-55 induced EAE [1]; chronic phase, day 46): 2.375±1.45 | mean Areas Under the Curve (mAUC) (MOG35-55 induced EAE [1]; chronic phase, day 46): 51.08±36.58 | mean clinical score vs control (MOG35-55 induced EAE [1]; chronic phase, entire observation period): lower mean clinical score | overall clinical effect on MOG35-55 EAE (MOG35-55 induced EAE [1]): mild beneficial effect | overall clinical effect on MOG35-55 EAE (MOG35-55 induced EAE [1]; listed as cyclic MBP83-99): mild preventive benefit | demyelination of the white matter of spinal cords (MOG35-55 induced EAE [2]; acute phase): 9.58±10.5% | effect on axonal injury vs control (MOG35-55 induced EAE [2]; acute phase): mild but statistical significant beneficial effect | effect on axonal loss vs control (MOG35-55 induced EAE [2]; acute phase): mild effect | infiltrating cells per optical field (MOG35-55 induced EAE [2]; acute phase): 290.8±277.7 | inflammatory cells per infiltration (MOG35-55 induced EAE [2]; acute phase): 53.72±62.0 | axonal injury per 20x field, % within GROUP (MOG35-55 induced EAE [2]; acute phase, score 0): 14.3% | axonal loss per 20x field, % within GROUP (MOG35-55 induced EAE [2]; acute phase, score 0): 16.5% | axonal injury per 20x field, % within GROUP (MOG35-55 induced EAE [2]; acute phase, score 1+): 45.1% | axonal loss per 20x field, % within GROUP (MOG35-55 induced EAE [2]; acute phase, score 1+): 36.1% | axonal injury per 20x field, % within GROUP (MOG35-55 induced EAE [2]; acute phase, score 2+): 22.3% | axonal loss per 20x field, % within GROUP (MOG35-55 induced EAE [2]; acute phase, score 2+): 31.6% | axonal injury per 20x field, % within GROUP (MOG35-55 induced EAE [2]; acute phase, score 3+): 11.3% | axonal loss per 20x field, % within GROUP (MOG35-55 induced EAE [2]; acute phase, score 3+): 12.0% | axonal injury per 20x field, % within GROUP (MOG35-55 induced EAE [2]; acute phase, score 4+): 6.0% | axonal loss per 20x field, % within GROUP (MOG35-55 induced EAE [2]; acute phase, score 4+): 3.8% | axonal injury vs control (MOG35-55 induced EAE [2]; chronic phase): not different | axonal loss vs control (MOG35-55 induced EAE [2]; chronic phase): less | demyelination of the white matter of spinal cords (MOG35-55 induced EAE [2]; chronic phase): 7.65±11.4% | infiltrating cells per optical field (MOG35-55 induced EAE [2]; chronic phase): 10.71±39.0 | inflammatory cells per infiltration (MOG35-55 induced EAE [2]; chronic phase): 6.0±15.8 | axonal injury per 20x field, % within GROUP (MOG35-55 induced EAE [2]; chronic phase, score 0): 49.3% | axonal loss per 20x field, % within GROUP (MOG35-55 induced EAE [2]; chronic phase, score 0): 51.4% | axonal injury per 20x field, % within GROUP (MOG35-55 induced EAE [2]; chronic phase, score 1+): 29.0% | axonal loss per 20x field, % within GROUP (MOG35-55 induced EAE [2]; chronic phase, score 1+): 26.8% | axonal injury per 20x field, % within GROUP (MOG35-55 induced EAE [2]; chronic phase, score 2+): 13.0% | axonal loss per 20x field, % within GROUP (MOG35-55 induced EAE [2]; chronic phase, score 2+): 10.9% | axonal injury per 20x field, % within GROUP (MOG35-55 induced EAE [2]; chronic phase, score 3+): 8.0% | axonal loss per 20x field, % within GROUP (MOG35-55 induced EAE [2]; chronic phase, score 3+): 10.1% | axonal injury per 20x field, % within GROUP (MOG35-55 induced EAE [2]; chronic phase, score 4+): 0.7% | axonal loss per 20x field, % within GROUP (MOG35-55 induced EAE [2]; chronic phase, score 4+): 0.7%

— patent US20110142866A1, “PEPTIDE ANALOGUES AND CONJUGATES THEREOF” (Eldrug S.A., priority 2007, published 2011)
